Legend:
[1] = biological target: α-synuclein (ASYN) (Homo sapiens, UniProt P37840); assay: Fluorescence emission spectra of compounds with and without aggregated α-synuclein; type: binding
Procedure: (§1) Emission spectra for compound 1 and compound 1a were collected after incubation of the compounds with and without aggregated amyloidogenic protein at specific excitation wavelengths (450 nm and 488 nm) employed in standard ocular imaging equipment. Amyloidogenic proteins (synthetic aggregated amyloid beta (Aβ), α-synuclein (ASYN), transthyretin (TTR), TAR DNA-binding protein 43 (TDP43), and phosphorylated tau (TAU)) were aggregated in vitro using the following procedure. The amyloidogenic protein was removed from the freezer and allowed to warm to room temperature, then 1 mg of amyloidogenic protein was dissolved in 215 μL of ddH2O for about 10-20 mins at room temperature. To the resulting solution, 2 mL of ddH2O was added to provide a 100 μM stock solution. A 100 μL aliquot was sampled and frozen (non-aggregated sample). The tubes were placed in a thermoshaker at 350 rpm for 3 days. Care was taken to avoid generating bubbles. Protein aggregation was confirmed by measuring binding to Thioflavin T (ThT). Aggregated protein was then portioned into 150 μL aliquots and stored at −80° C. The fluorescent emission spectra were measured as follows to determine binding of synthetic aggregated amyloid beta (Aβ), α-synuclein (ASYN), transthyretin (TTR), TAR DNA-binding protein 43 (TDP43), and phosphorylated tau (TAU) to test compounds described herein. The Shimadzu fluorimeter was turned on and allowed to warm up for ~60 minutes. The test compounds were then removed from the −20° C. freezer and were allowed to warm to room temperature. The 100 μM aggregated Aβ solution was then removed from the −80° C. freezer and also allowed to warm to room temperature. 250 μM solutions of each test compound in DMSO were then prepared. These were then used to prepare 4 μM solutions of each test compound, with and without 5 μM aggregated Aβ in 1×PBS, in triplicates. Using a cuvette, the fluorescent emission spectra were measured for each test compound+Aβ solution, employing a DMSO/PBS solution as a blank. Each sample was tested at an excitation of 450 nm and 488 nm. Fluorescent emission spectra were then collected for each 4 μM test compound solution alone. The resulting data were used to plot intensity vs. wavelength for each emission scan. The fold increase at maximum emission (compound+Aβ/compound) is calculated for each test compound.

[2] = test system: amyloidogenic aggregates (Aβ, ASYN, TTR, TDP43, 3RTau, and 4RTau); assay: In vitro binding to amyloidogenic aggregates, summary statement; details: excitation 450 nm or 488 nm
Procedure: Amyloidogenic proteins (synthetic aggregated amyloid beta (Aβ), α-synuclein (ASYN), transthyretin (TTR), TAR DNA-binding protein 43 (TDP43), and phosphorylated tau (TAU)) were aggregated in vitro using the following procedure. The amyloidogenic protein was removed from the freezer and allowed to warm to room temperature, then 1 mg of amyloidogenic protein was dissolved in 215 μL of ddH2O for about 10-20 mins at room temperature. To the resulting solution, 2 mL of ddH2O was added to provide a 100 μM stock solution. A 100 μL aliquot was sampled and frozen (non-aggregated sample). The tubes were placed in a thermoshaker at 350 rpm for 3 days. Care was taken to avoid generating bubbles. Protein aggregation was confirmed by measuring binding to Thioflavin T (ThT). Aggregated protein was then portioned into 150 μL aliquots and stored at −80° C.
The fluorescent emission spectra were measured as follows to determine binding of synthetic aggregated amyloid beta (Aβ), α-synuclein (ASYN), transthyretin (TTR), TAR DNA-binding protein 43 (TDP43), and phosphorylated tau (TAU) to test compounds described herein. […] Using a cuvette, the fluorescent emission spectra were measured for each test compound+Aβ solution, employing a DMSO/PBS solution as a blank. […] The fold increase at maximum emission (compound+Aβ/compound) is calculated for each test compound. […]

[3] = biological target: transthyretin (TTR) (Homo sapiens, UniProt P02766); assay: Fluorescence emission spectra of compounds with and without aggregated transthyretin; type: binding
Procedure: as §1

[4] = biological target: T1, synthetic aggregated amyloid beta (Aβ) (Homo sapiens, UniProt P05067); assay: Fluorescence emission spectra of compounds with and without aggregated amyloid beta; type: binding; details: for Fold Increase at maximum emission (compound+Aβ/compound): 4 μM compound, 5 μM aggregated Aβ in 1×PBS; for Peak emission: aggregated Aβ
T1 construct: synthetic aggregated amyloid beta (Aβ)
T1 sequence (P05067 672-713 limits assumed): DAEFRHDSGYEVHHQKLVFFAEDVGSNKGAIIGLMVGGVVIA
Procedure: as §1

[5] = biological target: TAR DNA-binding protein 43 (TDP43) (Homo sapiens, UniProt Q13148); assay: Fluorescence emission spectra of compounds with and without aggregated TDP43
Sequence of TAR DNA-binding protein 43 (TDP43) (Q13148 whole entry): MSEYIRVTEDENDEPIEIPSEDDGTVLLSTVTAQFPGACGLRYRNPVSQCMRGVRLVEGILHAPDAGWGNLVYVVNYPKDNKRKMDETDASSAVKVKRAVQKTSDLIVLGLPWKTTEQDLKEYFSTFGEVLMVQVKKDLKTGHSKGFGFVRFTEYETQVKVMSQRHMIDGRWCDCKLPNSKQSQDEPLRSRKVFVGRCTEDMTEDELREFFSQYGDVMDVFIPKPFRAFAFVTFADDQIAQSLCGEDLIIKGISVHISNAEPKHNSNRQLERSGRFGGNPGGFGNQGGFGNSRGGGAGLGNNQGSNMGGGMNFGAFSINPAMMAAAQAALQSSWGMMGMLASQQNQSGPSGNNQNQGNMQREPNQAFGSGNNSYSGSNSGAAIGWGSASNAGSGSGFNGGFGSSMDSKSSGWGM
Procedure: as §1

[6] = test system: 3RTau; assay: Fluorescence emission spectra of compounds with and without aggregated 3RTau; type: binding
Procedure: as §1

[7] = test system: 4RTau; assay: Fluorescence emission spectra of compounds with and without aggregated 4RTau; type: binding
Procedure: as §1

| Compound | Fold Increase at maximum emission ([1]; excitation 450 nm) | Peak emission ([1]; excitation 450 nm) | Fold Increase at maximum emission ([1]; excitation 488 nm) | Peak emission ([1]; excitation 488 nm) | Binding to all amyloidogenic aggregates tested [2] | Fold Increase at maximum emission ([3]; excitation 450 nm) | Peak emission ([3]; excitation 450 nm) | Fold Increase at maximum emission ([3]; excitation 488 nm) | Peak emission ([3]; excitation 488 nm) | Fold Increase at maximum emission (compound+Aβ/compound) ([4]; excitation 450 nm) | Peak emission ([4]; excitation 450 nm) | Fold Increase at maximum emission (compound+Aβ/compound) ([4]; excitation 488 nm) | Peak emission ([4]; excitation 488 nm) | Fold Increase at maximum emission ([5]; excitation 450 nm) | Peak emission ([5]; excitation 450 nm) | Fold Increase at maximum emission ([5]; excitation 488 nm) | Peak emission ([5]; excitation 488 nm) | Fold Increase at maximum emission ([6]; excitation 450 nm) | Fold Increase at maximum emission ([6]; excitation 488 nm) | Fold Increase at maximum emission ([7]; excitation 450 nm) | other results |
| --- | --- | --- | --- | --- | --- | --- | --- | --- | --- | --- | --- | --- | --- | --- | --- | --- | --- | --- | --- | --- | --- |
| N#C/C(=C\c1ccc2cc(N3CCCCC3)ccc2c1)C(=O)CCC(O)CO (stereo not drawn) [Compound 1a, (E)-6,7-dihydroxy-3-oxo-2-((6-(piperidin-1-yl)naphthalen-2-yl)methylene)heptanenitrile] | 120.92 | 554 | 190.64 | 554 | successfully bound | 4.67 | 550 | 7.35 | 557 | 9.48 | 554 | 19.60 | 559 | 23.23 | 551 | 20.40 | 551 | 84.37 | 103.65 | 22.19 | Fold Increase at maximum emission ([7]; excitation 488 nm): 22.48 |
| N#C/C(=C\c1ccc2cc(N3CCCCC3)ccc2c1)C(=O)CCCOCCOCCO [Compound 1, (E)-6-(2-(2-hydroxyethoxy)ethoxy)-3-oxo-2-((6-(piperidin-1-yl)naphthalen-2-yl)methylene)hexanenitrile] | 105.50 | 552 | 109.97 | 557 | successfully bound | 5.18 | 553 | 7.21 | 560 | 10.16 | 559 | 9.11 | 556 | 15.33 | 547 | 18.32 | 556 | 68.04 | 69.31 | 14.35 | Fold Increase at maximum emission ([7]; excitation 488 nm): 29.25 |
